Source: the supplement of paper PMC11061612

Legend:
Test in all cases: Bliss excess, mean over the matrix (fraction); higher = more synergy
[1] = tested on: 647-V (Bladder Carcinoma)
Outline: (§1)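 After 24 hours at 37°C and 5% CO2 in 1536-well plates, cells in DMEM/F12 or RPMI plus 10% FBS received two-drug dose matrices for 72 hours. Viability came from CellTiter-Glo 2.0 luminescence and was scaled as inhibition, anchored at 0 by vehicle wells and at 1 by blank wells. Combination Emax is taken as the second-highest inhibition in the matrix, and Bliss excess as the observed combination effect less EA + EB − EA·EB, with EA and EB the single-agent effects.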

A172 (Glioblastoma) = tested on: A172 (Glioblastoma)
Outline: as §1

[2] = tested on: BICR78 (Oral Cavity Carcinoma)
Outline: as §1

[3] = tested on: CAL-39 (Other Solid Carcinomas)
Outline: as §1

[4] = tested on: DOK (Oral Cavity Carcinoma)
Outline: as §1

EW-22 (Ewing's Sarcoma) = tested on: EW-22 (Ewing's Sarcoma)
Outline: as §1

[5] = tested on: GDM-1 (Acute Myeloid Leukemia)
Outline: as §1

H4 (Low Grade Glioma) = tested on: H4 (Low Grade Glioma)
Outline: as §1

[6] = tested on: HCC-827 (Lung Adenocarcinoma)
Outline: as §1

[7] = tested on: HCC1143 (Breast Carcinoma)
Outline: as §1

[8] = tested on: HCT-116 (Colorectal Carcinoma)
Outline: as §1

[9] = tested on: P31-FUJ (Acute Myeloid Leukemia)
Outline: as §1

[10] = tested on: RCC10RGB (Kidney Carcinoma)
Outline: as §1

[11] = tested on: SKN-3 (Head and Neck Carcinoma)
Outline: as §1

[12] = tested on: SW948 (Colorectal Carcinoma)
Outline: as §1

Saos-2 (Osteosarcoma) = tested on: Saos-2 (Osteosarcoma)
Outline: as §1

[13] = tested on: TYK-nu (Ovarian Carcinoma)
Outline: as §1

[14] = tested on: U-118-MG (Low Grade Glioma)
Outline: as §1

[15] = tested on: WSU-DLCL2 (B-Cell Non-Hodgkin's Lymphoma)
Outline: as §1

[16] = tested on: YT (Other Blood Carcinomas)
Outline: as §1

| SMILES | Bliss excess [1] | Bliss excess (A172 (Glioblastoma)) | Bliss excess [2] | Bliss excess [3] | Bliss excess [4] | Bliss excess (EW-22 (Ewing's Sarcoma)) | Bliss excess [5] | Bliss excess (H4 (Low Grade Glioma)) | Bliss excess [6] | Bliss excess [7] | Bliss excess [8] | Bliss excess [9] | Bliss excess [10] | Bliss excess [11] | Bliss excess [12] | Bliss excess (Saos-2 (Osteosarcoma)) | Bliss excess [13] | Bliss excess [14] | Bliss excess [15] | Bliss excess [16] |
| --- | --- | --- | --- | --- | --- | --- | --- | --- | --- | --- | --- | --- | --- | --- | --- | --- | --- | --- | --- | --- |
| CN(CCO)CC[C@H](CSc1ccccc1)Nc1ccc(S(=O)(=O)NC(=O)c2ccc(N3CCC([C@@H](O)c4ccccc4-c4ccc(Cl)cc4)CC3)cc2)cc1S(=O)(=O)C(F)(F)F [AZD4320] + Cn1cnc2c(F)c(Nc3ccc(Br)cc3Cl)c(C(=O)NOCCO)cc21 [Selumetinib] (first compound max 1 µM, 7x7, partner max 3 µM) | 0.0631 | -0.0071 | 0.0362 | 0.0039 | -0.0003 | 0.0011 | 0.0223 | -0.0002 | -0.0011 | 0.0112 | -0.0232 | 0.125 | -0.0159 | 0.0268 | -0.0332 | -0.0016 | -0.0839 | -0.0149 | 0.0155 | -0.0834 |
| C=CCn1c(=O)c2cnc(Nc3ccc(N4CCN(C)CC4)cc3)nc2n1-c1cccc(C(C)(C)O)n1 [AZD1775] + C1CN(CCC1(C(=O)N[C@@H](CCO)C2=CC=C(C=C2)Cl)N)C3=NC=NC4=C3C=CN4 [Capivasertib] (first compound max 3 µM, partner max 3 µM) | 0.0493 | -0.0099 | -0.0822 | -0.0152 | 0.0014 | 0.0403 | -0.0422 | -0.0472 | 0.0073 | -0.05 | 0.0051 | -0.0276 | -0.0144 | -0.0344 | -0.003 | -0.0459 | -0.0475 | -0.0726 | -0.0709 | -0.0938 |
| COc1cccc(OCCCN)c1-c1cc(Nc2cnc(C#N)cn2)n[nH]1 [Prexasertib] + Cc1cc2ncnn2cc1Nc1ncc2c(n1)n(C1CCOCC1)c(=O)n2C [AZD7648] (first compound max 1 µM, 7x7, partner max 10 µM) | -0.0011 | -0.0573 | -0.0379 | -0.0122 | 0.0019 | -0.0519 | -0.058 | -0.0369 | 0.0186 | -0.0318 | -0.0164 | -0.0255 | -0.075 | -0.0564 | -0.0155 | -0.0591 | -0.072 | -0.0584 | 0.0071 | -0.0508 |
| CC1(C)CCC(CN2CCN(c3ccc(C(=O)NS(=O)(=O)c4ccc(NCC5CCOCC5)c([N+](=O)[O-])c4)c(Oc4cnc5[nH]ccc5c4)c3)CC2)=C(c2ccc(Cl)cc2)C1 [Venetoclax] + Cn1cnc2c(F)c(Nc3ccc(Br)cc3Cl)c(C(=O)NOCCO)cc21 [Selumetinib] (first compound max 1 µM, 7x7, partner max 3 µM) | -0.0064 | -0.0176 | -0.0354 | 0.0138 | -0.0258 | -0.0233 | 0.0554 | 0.006 | -0.0212 | -0.0093 | -0.0255 | -0.0968 | -0.079 | 0.019 | -0.0505 | -0.0057 | -0.0594 | -0.0336 | 0.0196 | 0.0297 |
| NC1(C(=O)N[C@@H](CCO)c2ccc(Cl)cc2)CCN(c2ncnc3[nH]ccc23)CC1 [Capivasertib] + CC(=O)c1c(C)c2cnc(Nc3ccc(N4CCNCC4)cn3)nc2n(C2CCCC2)c1=O [Palbociclib] (first compound max 10 µM, 7x7, partner max 10 µM) | 0.0129 | -0.0183 | -0.0093 | 0.0167 | 0.016 | -0.0152 | 0.0262 | 0.0014 | -0.034 | 0.0317 | 0.01 | -0.0807 | -0.0368 | -0.0502 | -0.0442 | 0.0005 | -0.0208 | -0.0154 | 0.0205 | -0.0344 |
| Cc1c2c(nn1C)CSCc1cc(n(C)n1)CSc1cc(c3ccccc3c1)OCCCc1c(C(=O)O)n(C)c3c-2c(Cl)ccc13 [AZD5991] + Cc1cc2ncnn2cc1Nc1ncc2c(n1)n(C1CCOCC1)c(=O)n2C [AZD7648] (first compound max 1 µM, 7x7, partner max 10 µM) | 0.0281 | -0.0426 | -0.0172 | -0.0466 | 0.0115 | -0.041 | -0.0295 | 0.0222 | -0.0476 | 0.0124 | 0.013 | 0.0055 | 0.0033 | -0.032 | -0.0328 | -0.014 | -0.0539 | -0.0098 | -0.0422 | 0.0305 |
| Cc1nc(Nc2ncc(C(=O)Nc3c(C)cccc3Cl)s2)cc(N2CCN(CCO)CC2)n1 [Dasatinib] + CC(=O)Nc1cccc(-n2c(=O)n(C3CC3)c(=O)c3c(Nc4ccc(I)cc4F)n(C)c(=O)c(C)c32)c1 [Trametinib] (first compound max 2 µM, 7x7, partner max 1 µM) | -0.002 | -0.0823 | -0.0401 | 0.0171 | 0.0288 | -0.0457 | -0.102 | -0.0488 | -0.0114 | 0.0293 | 0.0991 | 0.108 | -0.0719 | 0.004 | -0.008 | 0.0164 | 0.0895 | -0.0736 | 0.101 | -0.0521 |
